According to the NIST ThermoML archive (doi:10.1016/j.jct.2017.06.002):

Experiment: xn = mol fraction of the nth substance listed
Settings: 100 kPa, Liquid; for viscosity: Concentric cylinders viscometry; for mass density: Vibrating tube method

COCOCOCOC [2,4,6,8-tetraoxanonane] + COCOCOC
Settings | mass density [kg/m3] | viscosity [mPa·s]
288.15 K, x2 = 0 | 1037.5 | 1.259
288.15 K, x2 = 0.06 | 1034.7 | 1.278
288.15 K, x2 = 0.12 | 1031.3 | 1.281
288.15 K, x2 = 0.18 | 1029.5 | 1.273
288.15 K, x2 = 0.24 | 1027.1 | 1.261
288.15 K, x2 = 0.35 | 1024.2 | 1.228
288.15 K, x2 = 0.45 | 1021.1 | 1.185
288.15 K, x2 = 0.55 | 1018.1 | 1.142
288.15 K, x2 = 0.65 | 1014.3 | 1.096
288.15 K, x2 = 0.74 | 1010.1 | 1.051
288.15 K, x2 = 0.83 | 1006.2 | 1.001
288.15 K, x2 = 0.92 | 1002.3 | 0.9612
293.15 K, x2 = 0 | 1030.2 | 1.166
293.15 K, x2 = 0.06 | 1028.4 | 1.174
293.15 K, x2 = 0.12 | 1025.9 | 1.177
293.15 K, x2 = 0.18 | 1024.5 | 1.17
293.15 K, x2 = 0.24 | 1022.7 | 1.159
293.15 K, x2 = 0.35 | 1019.5 | 1.128
293.15 K, x2 = 0.45 | 1016.1 | 1.093
293.15 K, x2 = 0.55 | 1012.8 | 1.058
293.15 K, x2 = 0.65 | 1009.1 | 1.021
293.15 K, x2 = 0.74 | 1005.3 | 0.9894
293.15 K, x2 = 0.83 | 1001.7 | 0.9628
293.15 K, x2 = 0.92 | 998.2 | 0.9384
298.15 K, x2 = 0 | 1023.4 | 1.084
298.15 K, x2 = 0.06 | 1022.3 | 1.093
298.15 K, x2 = 0.12 | 1021.2 | 1.098
298.15 K, x2 = 0.18 | 1019.5 | 1.093
298.15 K, x2 = 0.24 | 1018.1 | 1.084
298.15 K, x2 = 0.35 | 1014.5 | 1.059
298.15 K, x2 = 0.45 | 1011.2 | 1.032
298.15 K, x2 = 0.55 | 1007.8 | 1.002
298.15 K, x2 = 0.65 | 1004.1 | 0.9754
298.15 K, x2 = 0.74 | 1000.5 | 0.9543
298.15 K, x2 = 0.83 | 996.4 | 0.9353
298.15 K, x2 = 0.92 | 993 | 0.9189
303.15 K, x2 = 0 | 1016.6 | 1.028
303.15 K, x2 = 0.06 | 1016.4 | 1.038
303.15 K, x2 = 0.12 | 1015.9 | 1.042
303.15 K, x2 = 0.18 | 1014.5 | 1.037
303.15 K, x2 = 0.24 | 1013.1 | 1.031
303.15 K, x2 = 0.35 | 1009.9 | 1.01
303.15 K, x2 = 0.45 | 1006.5 | 0.9913
303.15 K, x2 = 0.55 | 1003.2 | 0.9667
303.15 K, x2 = 0.65 | 999.3 | 0.9452
303.15 K, x2 = 0.74 | 995.5 | 0.9283
303.15 K, x2 = 0.83 | 991.3 | 0.9135
303.15 K, x2 = 0.92 | 987.6 | 0.9007
308.15 K, x2 = 0 | 1011 | 0.9921
308.15 K, x2 = 0.06 | 1011.01 | 0.9966
308.15 K, x2 = 0.12 | 1010.7 | 0.9977
308.15 K, x2 = 0.18 | 1010.32 | 0.9959
308.15 K, x2 = 0.24 | 1008.6 | 0.9894
308.15 K, x2 = 0.35 | 1005.6 | 0.9741
308.15 K, x2 = 0.45 | 1002.1 | 0.9577
308.15 K, x2 = 0.55 | 998.9 | 0.938
308.15 K, x2 = 0.65 | 995 | 0.9204
308.15 K, x2 = 0.74 | 990.8 | 0.9067
308.15 K, x2 = 0.83 | 986.8 | 0.8938
308.15 K, x2 = 0.92 | 982.8 | 0.8828
313.15 K, x2 = 0 | 1005 | 0.9521
313.15 K, x2 = 0.06 | 1006.5 | 0.9668
313.15 K, x2 = 0.12 | 1007 | 0.9724
313.15 K, x2 = 0.18 | 1006.3 | 0.9671
313.15 K, x2 = 0.24 | 1005.5 | 0.9597
313.15 K, x2 = 0.35 | 1002.4 | 0.9453
313.15 K, x2 = 0.45 | 998.3 | 0.9308
313.15 K, x2 = 0.55 | 994.9 | 0.916
313.15 K, x2 = 0.65 | 990.8 | 0.9008
313.15 K, x2 = 0.74 | 987 | 0.8876
313.15 K, x2 = 0.83 | 983 | 0.8758
313.15 K, x2 = 0.92 | 979 | 0.8652
